Values joined by “and” are separate entries in the source; they are usually repeats but may differ in a detail not shown here. Identical values can stand only once. Like-named read-outs stand apart in the source and are kept apart here. Marks after values point to notes of the source that are not given here.
Experiments:
GluN1/GluN2D [1] = molecular target: GluN1/GluN2D (Rattus norvegicus, UniProt P35439+Q62645); type: cell-based
GluN1/2A-(2D S1) chimera = GluN1/2A-(2D S1) chimera (Rattus norvegicus, UniProt Q00959+Q62645); assay: Two-electrode voltage-clamp recordings, chimeric receptor in Xenopus oocytes; type: cell-based
[2] = molecular target: GluN1/GluN2A HDYS/QEQY + F680L + Y754K (Rattus norvegicus, UniProt Q00959, D675E/F680L/H674Q/S677Y/Y676Q/Y754K); assay: Two-electrode voltage-clamp recordings, mutant receptor in Xenopus oocytes; type: cell-based
[3] = molecular target: GluN1/GluN2A HDYS/QEQY + F680L + Y754K (Rattus norvegicus, UniProt P35439+Q00959, D675E/F680L/H674Q/S677Y/Y676Q/Y754K); assay: as above; type: cell-based
GluN1/GluN2D M726A [4] = molecular target: GluN1/GluN2D M726A (Rattus norvegicus, UniProt P35439+Q62645, M726A); assay: as above; type: cell-based
GluN1/GluN2D M726A [5] = molecular target: GluN1/GluN2D M726A (Rattus norvegicus, UniProt Q62645, M726A); assay: as above; type: cell-based
[6] = extracellular oocyte recording solution; ref Mosley et al., 2010; cited from earlier work
GluN1/GluN2B = GluN1/GluN2B (Rattus norvegicus, UniProt Q00960); type: cell-based
Chain of GluN1/GluN2B (Q00960 27-1482, other chains not shown): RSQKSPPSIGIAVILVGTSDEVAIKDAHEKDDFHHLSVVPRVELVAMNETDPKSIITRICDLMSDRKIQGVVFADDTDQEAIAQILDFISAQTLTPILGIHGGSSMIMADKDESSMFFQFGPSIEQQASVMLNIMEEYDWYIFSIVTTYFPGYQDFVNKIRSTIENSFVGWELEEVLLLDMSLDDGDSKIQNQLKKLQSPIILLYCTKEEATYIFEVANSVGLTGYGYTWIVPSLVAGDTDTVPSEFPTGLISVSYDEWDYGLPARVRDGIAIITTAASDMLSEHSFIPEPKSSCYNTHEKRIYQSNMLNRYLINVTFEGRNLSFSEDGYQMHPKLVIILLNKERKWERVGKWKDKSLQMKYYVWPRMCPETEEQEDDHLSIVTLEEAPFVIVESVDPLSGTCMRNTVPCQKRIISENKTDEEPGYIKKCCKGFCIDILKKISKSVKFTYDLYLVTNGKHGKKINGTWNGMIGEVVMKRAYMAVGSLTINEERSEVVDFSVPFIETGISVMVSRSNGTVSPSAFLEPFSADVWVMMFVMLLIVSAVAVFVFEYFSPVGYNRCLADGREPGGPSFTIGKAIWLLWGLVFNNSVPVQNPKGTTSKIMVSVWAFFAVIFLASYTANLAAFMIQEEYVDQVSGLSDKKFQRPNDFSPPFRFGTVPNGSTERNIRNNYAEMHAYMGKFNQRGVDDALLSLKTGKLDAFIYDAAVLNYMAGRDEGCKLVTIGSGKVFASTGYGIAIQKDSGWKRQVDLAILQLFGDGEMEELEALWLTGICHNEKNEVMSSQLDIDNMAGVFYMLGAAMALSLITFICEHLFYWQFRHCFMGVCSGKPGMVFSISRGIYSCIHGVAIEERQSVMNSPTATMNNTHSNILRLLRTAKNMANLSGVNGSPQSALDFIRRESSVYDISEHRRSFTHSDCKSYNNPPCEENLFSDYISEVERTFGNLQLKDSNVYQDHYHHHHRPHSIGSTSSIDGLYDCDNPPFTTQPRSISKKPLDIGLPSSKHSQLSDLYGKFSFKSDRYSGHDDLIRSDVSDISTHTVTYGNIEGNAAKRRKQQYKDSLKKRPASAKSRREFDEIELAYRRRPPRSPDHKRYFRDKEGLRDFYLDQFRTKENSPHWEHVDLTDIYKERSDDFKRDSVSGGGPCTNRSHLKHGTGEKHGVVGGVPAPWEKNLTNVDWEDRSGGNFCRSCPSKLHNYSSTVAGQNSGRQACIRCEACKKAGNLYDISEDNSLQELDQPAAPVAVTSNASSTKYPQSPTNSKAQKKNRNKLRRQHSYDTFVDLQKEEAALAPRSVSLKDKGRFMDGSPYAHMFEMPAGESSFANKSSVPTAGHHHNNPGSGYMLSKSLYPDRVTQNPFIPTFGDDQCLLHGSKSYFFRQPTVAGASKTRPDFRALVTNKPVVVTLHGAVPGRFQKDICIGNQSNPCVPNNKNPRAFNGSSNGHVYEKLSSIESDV

[7] = molecular target: GluN1/2A-(2D S1+S2) chimera (Rattus norvegicus, UniProt Q00959+Q62645); assay: Two-electrode voltage-clamp recordings, chimeric receptor in Xenopus oocytes; type: cell-based
GluN1/GluN2D QEQY/HDYS [8] = molecular target: GluN1/GluN2D QEQY/HDYS (Rattus norvegicus, UniProt Q62645, E700D/Q699H/Q701Y/Y702S); assay: Two-electrode voltage-clamp recordings, mutant receptor in Xenopus oocytes; type: cell-based
GluN1/GluN2D QEQY/HDYS [9] = molecular target: GluN1/GluN2D QEQY/HDYS (Rattus norvegicus, UniProt P35439+Q62645, E700D/Q699H/Q701Y/Y702S); assay: as above; type: cell-based
GluN1/GluN2A = GluN1/GluN2A (Rattus norvegicus, UniProt Q00959); type: cell-based
GluN1/GluN2D K779Y [10] = molecular target: GluN1/GluN2D K779Y (Rattus norvegicus, UniProt Q62645, K779Y); assay: Two-electrode voltage-clamp recordings, mutant receptor in Xenopus oocytes; type: cell-based
GluN1/GluN2D K779Y [11] = molecular target: GluN1/GluN2D K779Y (Rattus norvegicus, UniProt P35439+Q62645, K779Y); assay: as above; type: cell-based
[12] = molecular target: GluN1/GluN2D QEQY/HDYS + L705F + K779Y (Rattus norvegicus, UniProt P35439+Q62645, E700D/K779Y/L705F/Q699H/Q701Y/Y702S); assay: as above; type: cell-based
[13] = molecular target: GluN1/GluN2D QEQY/HDYS + L705F + K779Y (Rattus norvegicus, UniProt Q62645, E700D/K779Y/L705F/Q699H/Q701Y/Y702S); assay: as above; type: cell-based
GluN1/GluN2D A752V [14] = molecular target: GluN1/GluN2D A752V (Rattus norvegicus, UniProt Q62645, A752V); assay: as above; type: cell-based
GluN1/GluN2D A752V [15] = molecular target: GluN1/GluN2D A752V (Rattus norvegicus, UniProt P35439+Q62645, A752V); assay: as above; type: cell-based
GluN1/GluN2D [16] = molecular target: GluN1/GluN2D (Rattus norvegicus, UniProt Q62645); type: cell-based
[17] = fixed during fitting to the Hill equation
[18] = fold shift relative to GluN1/GluN2D

Which results are given for `COc1ccc2nc(/C=C/c3cccc([N+](=O)[O-])c3)n(-c3ccc(C(=O)O)cc3)c(=O)c2c1` [QNZ46, (E)-4-(6-methoxy-2-(3-nitrostyryl)-4-oxoquinazolin-3(4H)-yl)-benzoic acid]?
inhibition at 1 µM (GluN1/GluN2D [1]; HEK293, read-out: % inhibition of steady-state responses, 1 μM QNZ46 applied after activation): 23 ± 1%; inhibition at 1 µM (GluN1/GluN2D [1]; HEK293, read-out: % inhibition of steady-state responses, 1 μM QNZ46 present before, during, and after activation): 28 ± 3%; inhibition at 3 µM (GluN1/GluN2D [1]; HEK293, read-out: % inhibition of steady-state responses, 3 μM QNZ46 applied after activation): 50 ± 2%; inhibition at 3 µM (GluN1/GluN2D [1]; HEK293, read-out: % inhibition of steady-state responses, 3 μM QNZ46 present before, during, and after activation): 46 ± 3%; inhibition at 10 µM (GluN1/GluN2D [1]; HEK293, read-out: % inhibition of steady-state responses, 10 μM QNZ46 applied after activation): 75 ± 1%; inhibition at 10 µM (GluN1/GluN2D [1]; HEK293, read-out: % inhibition of steady-state responses, 10 μM QNZ46 present before, during, and after activation): 73 ± 2%; inhibition at 20 µM (GluN1/GluN2D [1]; HEK293, read-out: % inhibition of steady-state responses, 20 μM QNZ46 applied after activation): 88 ± 1%; inhibition at 20 µM (GluN1/GluN2D [1]; HEK293, read-out: % inhibition of steady-state responses, 20 μM QNZ46 present before, during, and after activation): 85 ± 2%; inhibition at 10 µM (GluN1/GluN2D [1]; HEK293, read-out: inhibition of the instantaneous current (pre-inhibition), 10 μM QNZ46 alone, nominal absence of glutamate plus glycine): ~11%; nH (Hill slope) (GluN1/2A-(2D S1) chimera; [17]): 1.0 ^a; Relative IC50 (IC50 2X / IC50 2D) (GluN1/2A-(2D S1) chimera; fold shift relative to GluN2D): 23; nH (Hill slope) [2]: 1.2; Relative IC50 (IC50 2X / IC50 2D) ([2]; fold shift relative to GluN2D): 4.4; IC50 [3]: 17 ± 1 µM; IC50 (GluN1/GluN2D M726A [4]): 500 ± 20 nM; nH (Hill slope) (GluN1/GluN2D M726A [5]): 1.1; Relative IC50 (IC50 2X / IC50 2D) (GluN1/GluN2D M726A [5]; fold shift relative to GluN2D): 0.1; maximum solubility [6]: 70 µM; nH (Hill slope) (GluN1/GluN2B; [17]): 1.0 ^a; Relative IC50 (IC50 2X / IC50 2D) (GluN1/GluN2B; [18]): 49; nH (Hill slope) [7]: 1.1; Relative IC50 (IC50 2X / IC50 2D) ([7]; fold shift relative to GluN2D): 1.2; nH (Hill slope) (GluN1/GluN2D QEQY/HDYS [8]): 1.0; Relative IC50 (IC50 2X / IC50 2D) (GluN1/GluN2D QEQY/HDYS [8]; fold shift relative to GluN2D): 2.6; IC50 (GluN1/GluN2D QEQY/HDYS [9]): 10 ± 1 µM; nH (Hill slope) (GluN1/GluN2A; [17]): 1.0 ^a; Relative IC50 (IC50 2X / IC50 2D) (GluN1/GluN2A; [18]): 47; nH (Hill slope) (GluN1/GluN2D K779Y [10]): 1.2; Relative IC50 (IC50 2X / IC50 2D) (GluN1/GluN2D K779Y [10]; fold shift relative to GluN2D): 4.9; IC50 (GluN1/GluN2D K779Y [11]): 19 ± 2 µM; IC50 [12]: 15 ± 1 µM; nH (Hill slope) [13]: 1.0; Relative IC50 (IC50 2X / IC50 2D) ([13]; fold shift relative to GluN2D): 3.8; nH (Hill slope) (GluN1/GluN2D A752V [14]): 1.0; Relative IC50 (IC50 2X / IC50 2D) (GluN1/GluN2D A752V [14]; fold shift relative to GluN2D): 4.1; IC50 (GluN1/GluN2D A752V [15]): 16 ± 1 µM; nH (Hill slope) (GluN1/GluN2D [16]): 1.1; selectivity for GluN2C- and GluN2D-containing receptors over receptors containing GluN2A or GluN2B (GluN1/GluN2D [16]): ~ 50 fold; Relative IC50 (IC50 2X / IC50 2D) (GluN1/GluN2D [16]; [18]): 1.0; difference in QNZ46 IC50 values between GluN2A- and GluN2D-containing receptors (GluN1/GluN2D [16]; rat, xenopus oocytes): ~ 50 fold and 50 fold

Source: article PMC3063124 (The Journal of neuroscience : the official journal of the …, 2011)
